Reference: the Kinase Knowledgebase extract (Sharma et al. 2016)

Molecular target: MAPK14 (human) (UniProt Q16539)
Assay: Inhibition of LPS-Induced TNF-alpha Production in THP-1 Cells
Conditions: thp1

Sequence of MAPK14 (human) (Q16539 whole entry, looked up): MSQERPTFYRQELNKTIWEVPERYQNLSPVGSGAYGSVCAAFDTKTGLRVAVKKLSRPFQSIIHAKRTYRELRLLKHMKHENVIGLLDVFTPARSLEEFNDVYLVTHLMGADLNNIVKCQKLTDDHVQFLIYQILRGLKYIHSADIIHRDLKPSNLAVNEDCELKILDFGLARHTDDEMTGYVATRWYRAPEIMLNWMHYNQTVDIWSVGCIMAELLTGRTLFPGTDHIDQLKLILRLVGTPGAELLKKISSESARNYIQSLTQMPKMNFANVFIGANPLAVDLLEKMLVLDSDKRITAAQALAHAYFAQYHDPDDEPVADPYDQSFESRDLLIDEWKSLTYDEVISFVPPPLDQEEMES

Q: Which IC50 does the source give for `O=C(Nc1ccc(Cl)c(COc2cnccn2)c1)c1cc(F)cc(N2CCOCC2)c1` here?
A: 0.21 µM

Q: `O=C(Nc1ccc(Cl)c(COc2ccc(NCCO)nc2)c1)c1cc(F)cc(N2CCOCC2)c1` was tested. Which IC50 did it give?
A: 0.97 µM

Molecular target: MAPK14 (UniProt Q16539)
Assay: Enzyme Assay
Conditions: not given

Sequence of MAPK14 (Q16539 whole entry, looked up): as above

Q: Which IC50 does the source give for `O=C(Nc1ccc(Cl)c(COc2cnccn2)c1)c1cc(F)cc(N2CCOCC2)c1` here?
A: < 2 µM

Q: Which IC50 does the source give for `CC(C)(CO)NC(=O)c1cnc(OCc2c(Cl)cccc2Cl)cn1` here?
A: < 20 µM

Q: Which IC50 does the source give for `CN1CCCC(CNC(=O)c2cnc(OCc3c(Cl)cccc3Cl)cn2)C1` (stereo not given) here?
A: < 1000 µM

Q: How did the IC50 turn out when `O=C(Nc1ccc(Cl)c(COc2ccc(NCc3ccccc3)nc2)c1)c1cc(F)cc(N2CCOCC2)c1` was run?
A: < 2 µM

Q: `Clc1cccc(Cl)c1COc1cnc(NCc2ccccc2)cn1` was tested. Which IC50 did it give?
A: < 20 µM

Q: With `OCCNc1cnc(OCc2c(Cl)cccc2Cl)cn1` as the compound, how does the IC50 read?
A: < 200 µM

Q: For `O=C1c2ccccc2C(O)N1c1ccc(Cl)c(COc2cccnc2)c1` (stereo not given), which IC50 is on record?
A: < 200 µM

Q: `CC(C)(C)c1cc(NC(=O)Nc2ccc(F)c(COc3cnccn3)c2)n(-c2ccc(F)cc2F)n1` was tested. Which IC50 did it give?
A: < 2 µM

Q: How did the IC50 turn out when `Nc1ncccc1OCc1cc2c(cc1Cl)OCO2` was run?
A: < 1000 µM

Q: Which IC50 does the source give for `O=C(Nc1ccc(F)c(COc2cnccn2)c1)c1ccc2ccccc2c1` here?
A: < 20 µM

Q: With `O=C(Nc1ccc(Cl)c(COc2cccnc2)c1)c1cccc(Cl)c1` as the compound, how does the IC50 read?
A: < 20 µM

Q: `O=C(CC1CCOCC1)Nc1cnc(OCc2c(Cl)cccc2Cl)cn1` was tested. Which IC50 did it give?
A: < 200 µM

Q: `O=C(Nc1ccc(F)c(COc2cnccn2)c1)c1cc(N2CCOCC2)nc(N2CCOCC2)n1` was tested. Which IC50 did it give?
A: < 2 µM

Q: How did the IC50 turn out when `Clc1cccc(Cl)c1COc1ccc(N2CCOCC2)nc1` was run?
A: < 1000 µM

Q: How did the IC50 turn out when `O=C(Nc1ccc(F)c(COc2cnccn2)c1)Oc1cccc(C(F)(F)F)c1` was run?
A: < 20 µM

Q: With `CC(=O)Nc1ccc(Cl)c(COc2cccnc2)c1` as the compound, how does the IC50 read?
A: < 1000 µM

Q: `O=C(Nc1ccc(Cl)c(COc2ccc(NCCO)nc2)c1)c1cc(F)cc(N2CCOCC2)c1` was tested. Which IC50 did it give?
A: < 2 µM

Q: How did the IC50 turn out when `O=C(Nc1ccc(F)c(COc2cnccn2)c1)c1cccc(S(=O)(=O)N2CCOCC2)c1` was run?
A: < 2 µM

Q: `Cc1noc(-c2ccccc2)c1C(=O)Nc1ccc(F)c(COc2cnccn2)c1` was tested. Which IC50 did it give?
A: < 200 µM

Q: With `O=S(=O)(Nc1ccc(Cl)c(COc2cccnc2)c1)c1ccccc1` as the compound, how does the IC50 read?
A: < 200 µM

Q: How did the IC50 turn out when `CSc1nnc(NC(=O)Nc2ccc(F)c(COc3cnccn3)c2)s1` was run?
A: < 200 µM

Q: For `O=C(Nc1ccc(F)c(COc2cnccn2)c1)Nc1cc(-c2ccccc2)[nH]n1`, which IC50 is on record?
A: < 2 µM

Q: With `Cc1nc2sccn2c1C(=O)Nc1ccc(F)c(COc2cnccn2)c1` as the compound, how does the IC50 read?
A: < 2 µM

Q: For `O=C(Nc1ccccc1)Oc1cccc(COc2cnccn2)c1`, which IC50 is on record?
A: < 200 µM

Q: For `CC(C)(C)c1cc(NC(=O)Nc2ccc(Cl)c(COc3cnccn3)c2)[nH]n1`, which IC50 is on record?
A: < 20 µM

Q: With `Nc1ncccc1OCc1ccc(Cl)cc1Cl` as the compound, how does the IC50 read?
A: < 1000 µM

Q: With `Cc1cc(C)c2nc(NC(=O)Nc3ccc(F)c(COc4cnccn4)c3)sc2c1` as the compound, how does the IC50 read?
A: < 1000 µM

Q: How did the IC50 turn out when `Nc1ccc(Cl)c(COc2cccnc2)c1` was run?
A: < 1000 µM

Q: `Nc1cnc(OCc2ccccc2)cn1` was tested. Which IC50 did it give?
A: < 1000 µM

Q: For `c1ccc(CNc2cccc(COc3cnccn3)c2)cc1`, which IC50 is on record?
A: < 1000 µM

Q: `Clc1cccc(Cl)c1COc1cnc(NC2CCOCC2)cn1` was tested. Which IC50 did it give?
A: < 200 µM

Q: How did the IC50 turn out when `Nc1ncccc1OCc1ccccc1-c1ccccc1` was run?
A: < 10 µM

Q: Which IC50 does the source give for `CC(C)(C)c1cc(NC(=O)Nc2ccc(F)c(COc3cnccn3)c2)n(-c2ccc(Cl)nn2)n1` here?
A: < 2 µM

Q: Which IC50 does the source give for `CC(C)(C)OC(=O)Nc1ccc(Cl)c(COc2cnccn2)c1` here?
A: < 1000 µM

Q: For `Clc1cnc(OCc2c(Cl)cccc2Cl)cn1`, which IC50 is on record?
A: < 1000 µM

Q: Which IC50 does the source give for `O=C(Nc1ccc(F)c(COc2cccnc2)c1)c1cccc(F)c1` here?
A: < 200 µM

Q: For `Clc1cccc(Cl)c1COc1ccc(NCc2ccccc2)nc1`, which IC50 is on record?
A: < 200 µM

Q: With `Nc1ncccc1OCc1cc(NC(=O)c2ccccc2)ccc1Cl` as the compound, how does the IC50 read?
A: < 20 µM
